{"source": "patent US8884020B2", "about": "“Indole compounds” (Ironwood Pharmaceuticals, Inc., priority 2006, dated 2014)", "origin": "cited, not measured here", "test_system": "prostaglandin synthesis", "details": "Shen et al. 1977", "data": [{"smiles": "Cc1c(CC(=O)O)c2cc(O)ccc2n1C(=O)c1ccc(Cl)cc1", "note": "[desmethyl metabolite, (1-(4-chlorobenzoyl)-5-hydroxy-2-methyl-1H-indol-3-yl]acetic acid]", "values": [{"measurement": "ability to inhibit prostaglandin synthesis", "value": "some ability to inhibit prostaglandin synthesis"}]}]}
